The values that follow come from the SangsterLogP compilation.

SMILES strings stand for the structures.

This series in a line: method code SF-AS, from DOI: 10.1016/0045-6535(95)00342-8.
A word on the logP: it is a log measure of how a compound divides between an organic and an aqueous phase. Read a high logP as a more lipophilic compound. The compound `CC(C)OC(=O)CC(Sc1ccccc1)C(=O)OC(C)C` (stereo not drawn) returned a logP of 3.53.

In turn, `COCCOC(=O)CSc1ccccc1` showed a logP of 1.02.

As to `CCOC(=O)CSc1ccccc1`, the logP was 2.12.

`CC(C)OC(=O)CC(CSc1ccccc1)C(=O)OC(C)C` (stereo not drawn) had a logP of 3.95.

As for `COC(=O)CC(Sc1ccccc1)C(=O)OC` (stereo not drawn), the logP worked out at 1.42.

`CCOC(=O)CC(CSc1ccccc1)C(=O)OCC` (stereo not drawn): the logP turned out to be 2.98.

For the compound `CCOC(=O)CC(Sc1ccccc1)C(=O)OCC` (stereo not drawn), the log partition coefficient (logP) stood at 2.6.

`COC(=O)CC(CSc1ccccc1)C(=O)OC` (stereo not drawn) showed a logP of 1.96.

Compound `CCOC(=O)CCSc1ccccc1` showed a logP of 2.72.

On to `COC(=O)CC(C)Sc1ccccc1` (stereo not drawn), for which the logP came out at 2.61.

Consider `CC(C)COC(=O)CSc1ccccc1`, for which the logP amounted to 3.02.

The compound `CCCCOC(=O)CSc1ccccc1` displayed a logP of 3.26.

`CCOCCOC(=O)CSc1ccccc1` came in with a logP of 1.73.

Consider `CCCOC(=O)CSc1ccccc1`, for which the logP came to 2.69.

As for `COC(=O)C(C)CSc1ccccc1` (stereo not drawn), the logP was found to be 2.63.

Take `CC(C)OC(=O)CSc1ccccc1`: the logP came to 2.53.

Turning to `COC(=O)CSc1ccccc1`, the logP is 1.5.

Regarding `COC(=O)CCSc1ccccc1`, the logP is 2.04.
